Drawing on patent US9850283B2, “Macrocyclic inhibitors of the PD-1/PD-L1 and CD80(B7-1)/PD-L1 protein/protein interactions” (BRISTOL-MYERS SQUIBB COMPANY, priority 2013, dated 2017), this text covers IC50 for 14 compounds.

pIC50: −log10 of the molar value. Positions of bridges follow the written chain, without caps; N, C: chain ends. Non-standard residues stand in square brackets, D forms with d. Residues, ends and D or L forms follow the SMILES beside them. Phe(3,4-(OMe)2) = COc1ccc(C[C@H](N)C(=O)O)cc1OC; Phe(3-OMe) = COc1cccc(C[C@H](N)C(=O)O)c1; Bta = N[C@@H](Cc1csc2ccccc12)C(=O)O; NMeNle = CCCC[C@H](NC)C(=O)O; Pen = CC(C)(S)[C@H](N)C(=O)O; NMeS = CN[C@@H](CO)C(=O)O; NMeA = CN[C@@H](C)C(=O)O; Nle = CCCC[C@H](N)C(=O)O; Dap = NC[C@H](N)C(=O)O; Sar = CNCC(=O)O

The target of one experiment is T1, Human PD-L1/PD-1 (Homo sapiens, UniProt Q9NZQ7).
T1 construct: made in house; host or cells: HEK293T
As to the kind of experiment: HTRF PD-1-Ig/PD-L1-His binding assay (human PD-L1). Conditions: cluster symbol; read-out: HTRF IC50 cluster. An outline of the steps: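 Interaction of Fc-tagged soluble PD-1 with His-tagged soluble PD-L1 is monitored by time-resolved FRET. Donor is europium cryptate anti-Ig (1 nM final) and acceptor is APC anti-His (20 nM final). Assay buffer is dPBS with 0.1% BSA and 0.05% Tween-20.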
A general note: Time-resolved FRET reads energy transfer from a long-lived donor to a nearby acceptor.

Experiment [1] deals with T2, LK35.2-hPD-L1 cells / PE-labeled PD-1-Ig (Homo sapiens, UniProt Q9NZQ7).
T2 construct: expressed in transfected cells; host or cells: LK35.2 mouse B cell line
In words: LK35.2-hPD-L1 cell binding high-content screening assay. As to conditions: cluster symbol; cell line of CBA not given (LK35.2-hPD-L1 or 293T-hPD-L1); read-out: CBA IC50 cluster. The experiment is classed as cell-based. An outline of the steps: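 Using overnight-cultured LK35.2-hPD-L1 mouse B cells, compound was co-incubated with phycoerythrin-tagged human PD-1-Ig (final 1 nM) at 37 °C for one hour. Unbound label was removed by triple dPBS washing prior to high-content image acquisition and analysis.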

T2 sequence (Q9NZQ7 19-290): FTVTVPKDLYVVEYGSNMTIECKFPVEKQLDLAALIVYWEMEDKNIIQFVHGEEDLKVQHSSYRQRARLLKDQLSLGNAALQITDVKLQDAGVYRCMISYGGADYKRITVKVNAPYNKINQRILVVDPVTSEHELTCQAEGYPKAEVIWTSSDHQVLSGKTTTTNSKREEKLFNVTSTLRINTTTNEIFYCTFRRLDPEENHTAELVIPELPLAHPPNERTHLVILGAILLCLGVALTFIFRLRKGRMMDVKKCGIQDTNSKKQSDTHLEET
T1 sequence (Q9NZQ7 with tags, fused parts or gaps): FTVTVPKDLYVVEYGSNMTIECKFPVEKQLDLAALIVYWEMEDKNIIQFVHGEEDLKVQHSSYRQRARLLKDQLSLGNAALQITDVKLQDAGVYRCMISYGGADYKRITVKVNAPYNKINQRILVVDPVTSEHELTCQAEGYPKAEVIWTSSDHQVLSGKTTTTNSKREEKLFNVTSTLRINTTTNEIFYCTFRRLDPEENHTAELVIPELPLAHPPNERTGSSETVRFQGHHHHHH

The pIC50 is the IC50 on a negative log10 scale, so that one unit is a factor of ten. `CCCC[C@@H]1NC(=O)[C@H](CCCC)N(C)C(=O)[C@H](CCCC)N(C)C(=O)[C@H](Cc2c[nH]c3ccccc23)NC(=O)[C@H](CO)NC(=O)[C@H](Cc2c[nH]c3ccccc23)NC(=O)CN(C)C(=O)[C@H](CC(C)C)NC(=O)[C@H](Cc2cnc[nH]2)NC(=O)[C@@H]2CCCN2C(=O)[C@H](CC(N)=O)NC(=O)[C@H](C)N(C)C(=O)[C@H](Cc2ccccc2)NC(=O)CSC[C@@H](C(=O)NCC(N)=O)NC1=O` [Example 1071] ({CH2CO}-F[NMeA]NPHL[Sar]WSW[NMeNle][NMeNle][Nle]CG-NH2; thioether N-14): the pIC50 on Human PD-L1/PD-1 is less than 7.52; in experiment [1], less than 7.13.
As to `CCCC[C@H]1C(=O)N(C)[C@@H](CCCC)C(=O)N[C@@H](CCCNC(=N)N)C(=O)N[C@@H](C(=O)NCC(N)=O)CSCC(=O)N[C@@H](Cc2cnc[nH]2)C(=O)N(C)[C@@H](C)C(=O)N[C@@H](CC(N)=O)C(=O)N2CCC[C@H]2C(=O)N[C@@H](Cc2cnc[nH]2)C(=O)N[C@@H](CC(C)C)C(=O)N(C)CC(=O)N[C@@H](Cc2c[nH]c3ccccc23)C(=O)N[C@@H](CO)C(=O)N[C@@H](Cc2c[nH]c3ccccc23)C(=O)N1C` [Example 1072] ({CH2CO}-H[NMeA]NPHL[Sar]WSW[NMeNle][NMeNle]R[dC]G-NH2; thioether N-14), the pIC50 on Human PD-L1/PD-1 was less than 7.52; in experiment [1], less than 7.13.
For `CCCC[C@H]1C(=O)N(C)[C@@H](CCCC)C(=O)N[C@@H](CCCNC(=N)N)C(=O)N[C@H](C(=O)NCC(N)=O)CSCC(=O)N[C@@H](Cc2ccccc2)C(=O)N(C)[C@@H](C)C(=O)N[C@@H](CC(N)=O)C(=O)N2CCC[C@H]2C(=O)N[C@@H](Cc2cnc[nH]2)C(=O)N[C@@H](CC(C)C)C(=O)N(C)CC(=O)N[C@@H](Cc2c[nH]cn2)C(=O)N[C@@H](CO)C(=O)N[C@@H](Cc2c[nH]c3ccccc23)C(=O)N1C` [Example 1073] ({CH2CO}-F[NMeA]NPHL[Sar]HSW[NMeNle][NMeNle]RCG-NH2; thioether N-14), in that order: less than 7.52 and less than 7.13.
For `CCCC[C@H]1C(=O)N(C)[C@@H](CCCC)C(=O)N[C@@H](CCCNC(=N)N)C(=O)N[C@H](C(=O)NCC(N)=O)CSCC(=O)N[C@@H](Cc2ccccc2)C(=O)N(C)[C@@H](C)C(=O)N[C@@H](CC(N)=O)C(=O)N2CCC[C@H]2C(=O)N[C@@H](Cc2cnc[nH]2)C(=O)N[C@@H](CC(C)C)C(=O)N[C@@H](CCC(N)=O)C(=O)N[C@@H](Cc2c[nH]c3ccccc23)C(=O)N[C@@H](CO)C(=O)N[C@@H](Cc2c[nH]c3ccccc23)C(=O)N1C` [Example 1074] ({CH2CO}-F[NMeA]NPHLQWSW[NMeNle][NMeNle]RCG-NH2; thioether N-14), the values for the pIC50 (on Human PD-L1/PD-1; in experiment [1]) were less than 7.52 and less than 7.13, respectively.
For `CCCC[C@H]1C(=O)N(C)[C@@H](CCCC)C(=O)N[C@@H](CCCNC(=N)N)C(=O)N[C@H](C(=O)NCC(N)=O)CSCC(=O)N[C@@H](Cc2ccccc2)C(=O)N(C)[C@@H](C)C(=O)N[C@@H](CC(N)=O)C(=O)N2CCC[C@H]2C(=O)N[C@@H](Cc2cnc[nH]2)C(=O)N[C@@H](CC(C)C)C(=O)N[C@@H](CC(N)=O)C(=O)N[C@@H](Cc2c[nH]c3ccccc23)C(=O)N[C@@H](CO)C(=O)N[C@@H](Cc2c[nH]c3ccccc23)C(=O)N1C` [Example 1075] ({CH2CO}-F[NMeA]NPHLNWSW[NMeNle][NMeNle]RCG-NH2; thioether N-14), in that order: less than 7.52 and less than 7.13.
Regarding `CCCC[C@H]1C(=O)N(C)[C@@H](CCCC)C(=O)N[C@@H](CCCNC(=N)N)C(=O)N[C@H](C(=O)NCC(=O)O)CSCC(=O)N[C@@H](Cc2ccccc2)C(=O)N(C)[C@@H](C)C(=O)N[C@@H](CC(N)=O)C(=O)N2CCC[C@H]2C(=O)N[C@@H](Cc2cnc[nH]2)C(=O)N[C@@H](CC(C)C)C(=O)N(C)CC(=O)N[C@@H](Cc2c[nH]c3ccccc23)C(=O)N[C@@H](CO)C(=O)N[C@@H](Cc2c[nH]c3ccccc23)C(=O)N1C` [Example 1076] ({CH2CO}-F[NMeA]NPHL[Sar]WSW[NMeNle][NMeNle]RCG-OH; thioether N-14), the pIC50 is 7.52 to 8.17 at Human PD-L1/PD-1 and 7.14 to 8.32 in experiment [1].
The like results for `CCCC[C@H]1C(=O)N(C)[C@@H](CCCC)C(=O)N[C@@H](CCCNC(=N)N)C(=O)N[C@H](C(=O)NCC(N)=O)CSCC(=O)N[C@@H](Cc2ccccc2)C(=O)N(C)[C@@H](C)C(=O)N[C@@H](CC(N)=O)C(=O)N2CCC[C@H]2C(=O)N[C@@H](CCCCN)C(=O)N[C@@H](CC(C)C)C(=O)N(C)CC(=O)N[C@@H](Cc2c[nH]c3ccccc23)C(=O)N[C@@H](CO)C(=O)N[C@@H](Cc2c[nH]c3ccccc23)C(=O)N1C` [Example 1077] ({CH2CO}-F[NMeA]NPKL[Sar]WSW[NMeNle][NMeNle]RCG-NH2; thioether N-14) were, in that order, 7.52 to 8.17 and less than 7.13.
For `CCCC[C@H]1C(=O)N(C)[C@@H](CCCC)C(=O)N[C@@H](CCCNC(=N)N)C(=O)N[C@H](C(=O)NCC(N)=O)CSCC(=O)N[C@@H](Cc2ccccc2)C(=O)N(C)[C@@H](C)C(=O)N[C@@H](CC(N)=O)C(=O)N2CCC[C@H]2C(=O)N[C@@H](Cc2cnc[nH]2)C(=O)N[C@@H](CC(C)C)C(=O)N(C)CC(=O)N[C@@H](Cc2c[nH]c3ccccc23)C(=O)N(C)[C@@H](CO)C(=O)N[C@@H](Cc2c[nH]c3ccccc23)C(=O)N1C` [Example 1078] ({CH2CO}-F[NMeA]NPHL[Sar]W[NMeS]W[NMeNle][NMeNle]RCG-NH2; thioether N-14), in that order: less than 7.52 and less than 7.13.
For `CCCC[C@H]1C(=O)N(C)[C@@H](CCCC)C(=O)N[C@@H](CCCNC(=N)N)C(=O)N[C@H](C(=O)NCC(N)=O)CSCC(=O)N[C@@H](Cc2ccccc2)C(=O)N(C)[C@@H](C)C(=O)N[C@@H](CC(N)=O)C(=O)N2CCC[C@H]2C(=O)N[C@@H](Cc2cnc[nH]2)C(=O)N[C@@H](CC(C)C)C(=O)N(C)CC(=O)N[C@@H](Cc2ccc(OC)c(OC)c2)C(=O)N[C@@H](CO)C(=O)N[C@@H](Cc2c[nH]c3ccccc23)C(=O)N1C` [Example 1080] ({CH2CO}-F[NMeA]NPHL[Sar][Phe(3,4-(OMe)2)]SW[NMeNle][NMeNle]RCG-NH2; thioether N-14), in that order: less than 7.52 and less than 7.13.
As to `CCCC[C@H]1C(=O)N(C)[C@@H](CCCC)C(=O)N[C@@H](CCCNC(=N)N)C(=O)N[C@H](C(=O)NCC(N)=O)CSCC(=O)N[C@@H](Cc2ccccc2)C(=O)N(C)[C@@H](C)C(=O)N[C@H](C)C(=O)N2CCC[C@H]2C(=O)N[C@@H](Cc2cnc[nH]2)C(=O)N[C@@H](CC(C)C)C(=O)N(C)CC(=O)N[C@@H](Cc2c[nH]c3ccccc23)C(=O)N[C@@H](CO)C(=O)N[C@@H](Cc2c[nH]c3ccccc23)C(=O)N1C` [Example 1081] ({CH2CO}-F[NMeA][dA]PHL[Sar]WSW[NMeNle][NMeNle]RCG-NH2; thioether N-14), the pIC50 on Human PD-L1/PD-1 is less than 7.52; in experiment [1], less than 7.13.
For `CCCC[C@H]1C(=O)N(C)[C@@H](CCCC)C(=O)N[C@@H](CCCNC(=N)N)C(=O)N[C@H](C(=O)NCC(N)=O)CSCC(=O)N[C@@H](Cc2ccccc2)C(=O)N(C)[C@@H](C)C(=O)N[C@@H](CC(C)C)C(=O)N2CCC[C@H]2C(=O)N[C@@H](Cc2cnc[nH]2)C(=O)N[C@@H](CC(C)C)C(=O)N(C)CC(=O)N[C@@H](Cc2c[nH]c3ccccc23)C(=O)N[C@@H](CO)C(=O)N[C@@H](Cc2c[nH]c3ccccc23)C(=O)N1C` [Example 1082] ({CH2CO}-F[NMeA]LPHL[Sar]WSW[NMeNle][NMeNle]RCG-NH2; thioether N-14), in that order: less than 7.52 and less than 7.13.
For `CCCC[C@H]1C(=O)N(C)[C@@H](CCCC)C(=O)N[C@@H](CCCNC(=N)N)C(=O)N[C@H](C(=O)NCC(N)=O)C(C)(C)SCC(=O)N[C@@H](Cc2ccccc2)C(=O)N(C)[C@@H](C)C(=O)N[C@@H](CC(N)=O)C(=O)N2CCC[C@H]2C(=O)N[C@@H](Cc2cnc[nH]2)C(=O)N[C@@H](CC(C)C)C(=O)N(C)CC(=O)N[C@@H](Cc2c[nH]c3ccccc23)C(=O)N[C@@H](CO)C(=O)N[C@@H](Cc2c[nH]c3ccccc23)C(=O)N1C` [Example 1083] ({CH2CO}-F[NMeA]NPHL[Sar]WSW[NMeNle][NMeNle]R[Pen]G-NH2; thioether N-14), in that order: 8.17 to 9.41 and 7.14 to 8.32.
With `CCCC[C@H]1C(=O)N(C)[C@@H](CCCC)C(=O)N[C@@H](CCCNC(=N)N)C(=O)N[C@H](C(=O)NCC(N)=O)CSCC(=O)N[C@@H](Cc2ccc(O)cc2)C(=O)N(C)[C@@H](C)C(=O)N[C@@H](CC(N)=O)C(=O)N2CCC[C@H]2C(=O)N[C@@H](CN)C(=O)N[C@@H](CC(C)C)C(=O)N2CCC[C@H]2C(=O)N[C@@H](Cc2c[nH]c3ccccc23)C(=O)N[C@@H](CO)C(=O)N[C@@H](Cc2csc3ccccc23)C(=O)N1C` [Example 1084] ({CH2CO}-Y[NMeA]NP[Dap]LPWS[Bta][NMeNle][NMeNle]RCG-NH2; thioether N-14), the pIC50 on Human PD-L1/PD-1 is 8.17 to 9.41; in experiment [1], 8.33 to 9.80.
As for `CCCC[C@H]1C(=O)N(C)[C@@H](CCCC)C(=O)N[C@@H](CCCNC(=N)N)C(=O)N[C@H](C(=O)NCC(N)=O)CSCC(=O)N[C@@H](Cc2ccccc2)C(=O)N(C)[C@@H](C)C(=O)N[C@@H](CC(N)=O)C(=O)N2CCC[C@H]2C(=O)N[C@@H](Cc2cnc[nH]2)C(=O)N[C@@H](CC(C)C)C(=O)N(C)CC(=O)N[C@@H](Cc2cccc(OC)c2)C(=O)N[C@@H](CO)C(=O)N[C@@H](Cc2c[nH]c3ccccc23)C(=O)N1C` [Example 1085] ({CH2CO}-F[NMeA]NPHL[Sar][Phe(3-OMe)]SW[NMeNle][NMeNle]RCG-NH2; thioether N-14), the pIC50 is less than 7.52 at Human PD-L1/PD-1 and less than 7.13 in experiment [1].
